As usually defined, the EC50 is the midpoint of the concentration-response curve.

Structures are written as SMILES.

The text below walks through data of patent US20130296358A1, “3-SPIROCYCLIC PIPERIDINE DERIVATIVES AS GHRELIN RECEPTOR AGONISTS” (priority 2012, published 2013).

The target in test [1] is T1, human recombinant ghrelin receptor (GHS-R1a) (Homo sapiens, UniProt Q92847).
T1 construct: host or cells: CHO-K1
As to the kind of experiment: cAMP assay (HTRF), CHO-hGHS-R1a cells. It counts as cell-based. The settings on record: relative to the ghrelin response (defined as 100%). As to the method:
(§1) Chinese hamster ovary (CHO-K1) cells expressing human recombinant ghrelin receptor (GHS-R1a) were purchased from Euroscreen (ES-410-C) and propagated in UltraCHO medium containing glutamine and supplemented with 1% heat inactivated foetal calf serum (FCS), 100 U/ml penicillin, 100 mg/l streptomycin and 0.8 g/l geneticin. Cells were sub-cultured twice a week with a 1:10 dilution. For passaging, cells were washed with 1× DPBS without calcium and magnesium, trypsinised for 10 min with 0.05% Trypsin/EDTA and resuspended in cell culture medium.
The Homogeneous Time-Resolved Fluorescence (HTRF) cAMP dynamic 2 kit (Cisbio International, France) was used as follows. CHO-hGHS—R1a or CHO-rGHS—R1a cells were seeded in a volume of 25 μl culture media at 10,000 cells/well (400,000 cells/ml) in Greiner white 384-well high volume plates and incubated overnight (18-24 h) at 37° C./5% CO2. Then, media was removed and 6 μl assay buffer [HBSS, 10 mM Hepes, 0.2% (w/v) BSA, 1.7 mM IBMX, (pH7.4)] were added to the wells. To generate a dose response up to 30 μM, 10 mM compound stocks in 100% (v/v) DMSO were firstly diluted in 50% (v/v) DMSO followed by a further dilution into assay buffer. Then, 4 μl of 2.5× compound (dose response as 9 point log serial dilution in assay buffer from 30 μM as maximum concentration) were added to each well achieving a final DMSO assay concentration of 0.8% (v/v). 0.1 μM forskolin was added as positive control. After 30 min (rGHS—R1a cell line) or 60 min (hGHS—R1a cell line) incubation at 37° C./5% CO2, 5 μl of cAMP-d2 and 5 μl of anti-cAMP antibody-cryptate, (both made in lysis buffer), were added to the plate followed by 1 h incubation at RT. During this time, cAMP produced by the cells competed with cAMP-d2 for the anti-cAMP antibody-cryptate molecule. Then, the plate was read on the Pherastar instrument (BMG, Germany) at two different emission wavelengths ([…]). Increasing levels of endogenous cAMP produced by cells could be followed by a decrease of FRET fluorescent signal and viceversa. Values represented by a change in arbitrary fluorescence ratios (665/620) were converted into cAMP concentrations by using a standard curve, the reagents for which were supplied with the kit. EC50 values of agonists were calculated using the nonlinear logistic function of the Prism 5 software (GraphPad, USA). Emax were expressed as relative values of the ghrelin response, which was defined as 100%.

Test [2] has as its target T1, human recombinant ghrelin receptor (GHS-R1a). As to the kind of experiment: Calcium assay, CHO-K1 cells expressing hGHS-R1a (Fluo-4). It counts as cell-based. On the procedure:
as §1
Cells were diluted to achieve 1×10^6 cells/ml, seeded in 384-well black clear bottom CellBind plates at 25000 cells/well (25u1) and incubated overnight at 37° C./5% CO2 Cells were expected to be 85-90% confluent on the day of assay (checked under the microscope) to ensure a high quality assay. Media was manually removed and 40 μl of loading solution containing probenecid and Fluo-4 no wash dye (a calcium indicator, Invitrogen F36206) were added to each well. After 30 min at 37° C. followed by another 30 min at RT, cpds were added to the wells. To generate a dose response up to 30 μM, 10 mM compound stocks in 100% (v/v) DMSO were firstly diluted in 50% (v/v) DMSO. Then, serial dilutions aimed at a full logarithmic dose responses (8 point) were performed in assay buffer [1×HBSS, 20 mM Hepes, 0.1% (w/v) BSA] to give 2.5% (v/v) DMSO and 5× final compound concentrations. The final assay DMSO concentration was 0.5% (v/v). After loading the cells with Fluo-4 containing solution, plates were read on a CeIlLux instrument (Perkin Elmer). A protocol set up to add 10 μl of 5× compound and to read the plate for 60sec after adding the compound at 17th sec was used. Fluorescence excitation took place at 494 nm and emission at 516 nm. EC50 values of agonists were calculated by fitting the percent stimulation over background [(Max-Min)/Min] using the nonlinear logistic function of the Prism 5 software (GraphPad, USA).

The next test has as its system rat fundus. As to the kind of experiment: Rat fundus contractility assay (EFS-induced contraction of muscle strips). The conditions noted are these: for EC50: increase of EFS-induced contraction, mean of preparations from at least 3 animals; for Emax/% / Emax: relative to the response to ghrelin (100 nM), defined as 100%. As to the method: Male Sprague Dawley rats (180-250 g) were culled by cervical dislocation and the fundus was removed. Each fundus was placed on a Krebs Henseleit (KH) buffer soaked dissection dish and cut along the long curvature to form a flattened sheet that was pinned in each corner. Four adjacent longitudinal strips (10×3 mm) were cut and the mucosa removed by sharp dissection. Each muscle strip was mounted in a 10 ml organ bath containing oxygenated KH at 37° C. Each strip was connected to an isometric force transducer, calibrated initially using a 5 g weight. The signal (g tension) was amplified and responses recorded by a Powerlab data capture system, connected to a computer running Labchart software (version 5.0). Tissues were placed under 1 g tension for an equilibration period of 30 min or until the baseline tension had stabilised. Carbachol (CCh, 100 nM) was then administered to establish the maximum contractile response of each preparation. Tissues were washed thoroughly and left for 30 min to re-equilibrate. Next, the muscle strips underwent electrical field stimulation (EFS). Maximal EFS pulse trains of 12V, 5 Hz, 0.1 msec pulse width, for 2 sec every 60 sec were applied until consistent electrically-stimulated phasic contractions were recorded. The voltage was then reduced in 1V increments until a consistent submaximal (EC50-75) EFS response was observed. Ghrelin (100 nM) was administered and left until a maximum response was obtained. Tissues were then washed thoroughly and left for 30 min. Once the EFS-induced contraction had re-stabilised, cumulative additions (10 nM-10 μM) of each test compound were administered. Individual responses were calculated by determining the peak of the EFS-induced contraction minus the baseline. […] The mean EC50 value for compounds was generated from data obtained on stomach preparations from at least 3 different animals.

The mark [3] stands for this setting: CHO-K1, relative to the Emax induced by MK-0677 (defined as 100%), read-out: hGHS-R1a Ca assay Emax/%.

T1 sequence (Q92847 whole entry): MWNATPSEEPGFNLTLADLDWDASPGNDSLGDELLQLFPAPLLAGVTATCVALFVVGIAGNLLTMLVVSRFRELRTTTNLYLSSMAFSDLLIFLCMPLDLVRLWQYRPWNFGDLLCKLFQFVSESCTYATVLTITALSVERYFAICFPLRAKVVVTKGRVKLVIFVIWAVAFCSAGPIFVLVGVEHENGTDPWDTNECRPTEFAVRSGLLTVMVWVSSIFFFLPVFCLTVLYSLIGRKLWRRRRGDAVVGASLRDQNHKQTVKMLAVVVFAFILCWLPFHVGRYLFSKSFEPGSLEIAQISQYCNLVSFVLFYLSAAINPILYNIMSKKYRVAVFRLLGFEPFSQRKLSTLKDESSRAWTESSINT

Consider `CN1N=C(c2ccccc2)C2(CCCN(C(=O)[C@@H](COCc3ccccc3)NC(=O)C(C)(C)N)C2)C1=O` (mixture of isomers) [Example 1.47, 2-Amino-N-[(R)-1-benzyloxymetnyl-2-(3-methyl-4-oxo-1-phenyl-2,3,7-triaza-spiro[4.5]dec-1-en-7-yl)-2-oxo-ethyl]-2-methyl-propionamide], for which the Emax in test [1] was 145%; in test [2] (setting [3]), 104%.
With `CC(C)(N)C(=O)N[C@H](COCc1ccccc1)C(=O)N1CCCC2(C1)C(=O)NCC2c1ccccc1` (single isomer, unassigned) [Example 1.4], the “hGHS-R1a cAMP assay Emax/%” value in test [1] was 127%. Besides, the Emax in test [2] (setting [3]) came out at 100%.
Turning to `CC(C)N1CC(c2ccccc2)C2(CCCN(C(=O)[C@@H](COCc3ccccc3)NC(=O)C(C)(C)N)C2)C1=O` (single isomer, unassigned) [Example 1.6], in the test on rat fundus, it took 373 nM to reach a half-maximal effect (EC50) and the Emax/% turned out to be 70%.
Consider `CN1CC(c2ccc(Cl)cc2)C2(CCCN(C(=O)[C@@H](COCc3ccccc3)NC(=O)C(C)(C)N)C2)C1=O` (single isomer, unassigned) [Example 1.8], for which the Emax in test [1] was 149%; in test [2] (setting [3]), 102%.
In the test with rat fundus (Rattus norvegicus), `CC(C)N1CC(c2ccc(F)cc2)C2(CCCN(C(=O)[C@@H](COCc3ccccc3)NC(=O)C(C)(C)N)C2)C1=O` (single isomer, unassigned) [Example 1.18] had an Emax of 117%. Besides, in the test on rat fundus, the response was half-maximal at 148 nM (EC50).
In the test with rat fundus, `CC(C)N1CC(c2ccc(F)cc2)C2(CCCN(C(=O)[C@@H](COCc3ccccc3)NC(=O)C(C)(C)N)C2)C1=O` (single isomer, unassigned) [Example 1.19] had an EC50 of 23 nM and an Emax/% of 124%.
Consider `CCN1CC(c2ccccc2)C2(CCCN(C(=O)[C@@H](COCc3ccccc3)NC(=O)C(C)(C)N)C2)C1=O` (single isomer, unassigned) [Example 1.25], for which the Emax in test [1] is 223%; in test [2] (setting [3]), 103%.
As for `CN1CC(c2ccccc2)C2(CCCN(C(=O)[C@@H](CCc3ccccc3)NC(=O)C(C)(C)N)C2)C1=O` (single isomer, unassigned) [Example 1.28], the values for the Emax in test [1] and in test [2] (setting [3]) were 194% and 106%, respectively.
In the test on rat fundus, `CN1CC(c2ccccc2)C2(CCCN(C(=O)[C@@H](CCCc3ccccc3)NC(=O)C(C)(C)N)C2)C1=O` (single isomer, unassigned) [Example 1.33] returned an EC50 of 84 nM and an Emax/% of 131%.
Turning to `CC(C)(N)C(=O)N[C@H](COCc1ccccc1)C(=O)N1CCCC2(C1)C(=O)NCC2c1ccccc1` (single isomer, unassigned) [Example 1.49], the “hGHS-R1a cAMP assay Emax/%” value in test [1] amounted to 88%.
As for `Cc1ccccc1C1CN(C)C(=O)C12CCCN(C(=O)[C@@H](COCc1ccccc1)NC(=O)C(C)(C)N)C2` (single isomer, unassigned) [Example 1.51], the Emax in test [1] was 141%; in test [2] (setting [3]), 98%.
The like results for `Cc1ccc(C2CN(C)C(=O)C23CCCN(C(=O)[C@@H](COCc2ccccc2)NC(=O)C(C)(C)N)C3)cc1` (single isomer, unassigned) [Example 1.53] were, in that order, 212% and 89%.
Regarding `Cc1ccc(COC[C@@H](NC(=O)C(C)(C)N)C(=O)N2CCCC3(C2)C(=O)N(C)CC3c2ccccc2)cc1` (single isomer, unassigned) [Example 1.55], the results for the Emax in test [1] and in test [2] (setting [3]) were 191% and 94%, respectively.
In the case of `CN1CC(c2ccc(F)cc2)C2(CCCN(C(=O)[C@@H](COCc3ccc(Cl)cc3)NC(=O)C(C)(C)N)C2)C1=O` (single isomer, unassigned) [Example 1.57], the Emax came out at 173% in test [1] and 84% in test [2] (setting [3]).
Turning to `CN1CC(c2ccccc2)C2(CCCN(C(=O)[C@@H](COCC3CCCCC3)NC(=O)C(C)(C)N)C2)C1=O` (single isomer, unassigned) [Example 1.60], the values for the Emax in test [1] and in test [2] (setting [3]) were 171% and 98%, respectively.
As for `CN1CN(c2ccccc2)C2(CCCN(C(=O)[C@@H](COCc3ccccc3)NC(=O)C(C)(C)N)C2)C1=O` (single isomer, unassigned) [Example 1.61], the Emax in test [1] turned out to be 189%; in test [2] (setting [3]), 73%.
`CN1C(=O)C2(CCCN(C(=O)[C@@H](COCc3ccccc3)NC(=O)C(C)(C)N)C2)C1c1ccccc1` (single isomer, unassigned) [Example 2.0(iii)]: in the test on rat fundus, a half-maximal response (EC50) required 70 nM and the Emax/% is reported as 70%.
In the test on rat fundus (Rattus norvegicus), `CC(C)N1CC(c2ccccc2)C2(CCCN(C(=O)[C@@H](Cc3c[nH]c4ccccc34)NC(=O)C(C)(C)N)C2)C1=O` (single isomer, unassigned) [Example 3.0(ii)] returned an EC50 of 15 nM and an Emax of 85%.
Consider `COc1ccc(COC[C@@H](NC(=O)C(C)(C)N)C(=O)N2CCCC3(C2)C(=O)N(C)CC3c2ccccc2)cc1` (single isomer, unassigned) [Example 6.0(ii), 2-Amino-N—[(R)-1-(4-methoxy-benzyloxymethyl)-2-((4S,5R)-2-methyl-1-oxo-4-phenyl-2,7-diaza-spiro[4.5]dec-7-yl)-2-oxo-ethyl]-2-methyl-propionamide or 2-Amino-N—[(R)-1-(4-methoxy-benzyloxymethyl)-2-(4R,5S)-2-methyl-1-oxo-4-phenyl-2,7-diaza-spiro[4.5]dec-7-yl)-2-oxo-ethyl]-2-methyl-propionamide], for which the figures for the Emax in test [1] and in test [2] (setting [3]) were 268% and 103%, respectively.
For the molecule `CC(C)(N)C(=O)N[C@H](COCc1ccccc1)C(=O)N1CCC2(CC1)CN(S(C)(=O)=O)c1ccccc12` [MK-0677, reference compound], the Emax result in test [2] (compared with ghrelin) is “same Emax as ghrelin”.
